Patent US12459921B2, “Isoindoline compound, preparation method, pharmaceutical composition and use thereof” (SHANGHAI INSTITUTE OF MATERIA MEDICA, CHINESE ACADEMY OF …, priority 2018, dated 2025)
pIC50: −log10 of the molar value.

Each compound was assayed on MM.1S cells (assay: Inhibitory effect on the proliferation of MM.1S, MTS cell viability test). Details: Homo sapiens, MM1.S, 168 h, multiple myeloma MM.1S cells, 7 days incubation, read-out: Tumor cell inhibitory activity.
Type: cell-based
Procedure, shortened: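 MM.1S cells (20,000/well, RPMI 1640 with 10% FBS) exposed to 5-fold compound dilutions at 0.2% DMSO for 7 days at 37° C, 5% CO2. MTS added for 3-4 h; OD490-OD690 gave inhibition versus DMSO, IC50 fitted, mean of three experiments.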

CC(=O)N[C@@H](CCCc1cccc2c1CN(C1CCC(=O)NC1=O)C2=O)c1nc2ccccc2[nH]1 (stereo partly drawn) [Example 203, N-((1S)-1-(1H-benzo[d]imidazole-2-)-4-(2-(2,6-dioxopiperidine-3-)-1-oxoisoindoline-4-)butyl)amide] was tested. Which pIC50 did it give?
The pIC50 was 6.00 to 7.00.

How did the pIC50 turn out when CC(=O)N[C@@H](CCCc1cccc2c1CN(C1CCC(=O)NC1=O)C2=O)C(=O)N(C)Cc1ccccc1 (stereo partly drawn) [Example 204, (2S)-2-acetylamino-N-benzyl-5-(2-(2,6-oxopiperidine-3-)-1-oxoisoindoline-4-)-N-methylpentanamide] was run?
The pIC50 was 4.70 to 6.00.

CC(=O)N[C@@H](CCCc1cccc2c1CN(C1CCC(=O)NC1=O)C2=O)c1nc2ccncc2[nH]1 (stereo partly drawn) [Example 205, N-((1S)-4-(2-(2,6-dioxopiperidine-3-)-1-oxoisoindoline-4-)-1-(3H-imidazole[4,5-c]pyridine-2-)butyl)acetamide] was tested. Which pIC50 did it give?
Its pIC50 is less than 4.70.

How did the pIC50 turn out when CCC(=O)N[C@@H](CCCc1cccc2c1CN(C1CCC(=O)NC1=O)C2=O)C(=O)NCc1ccccc1 (stereo partly drawn) [Example 206, (2S)—N-benzyl-5-(2-(2,6-dioxopiperidine-3-)-1-oxoisoindoline-4-)-2-propionamidopentaneamide] was run?
Its pIC50 is greater than 7.00.

CC(=O)N[C@@H](CCCc1cccc2c1CN(C1CCC(=O)NC1=O)C2=O)C(=O)N1CCC2(CC1)OCc1ccccc12 (stereo partly drawn) [Example 207, N-((2S)-5-(2-(2,6-dioxopiperidine-3-)-1-oxoisoindoline-4-)-1-oxo-1-(3H-spiro[isobenzofuran-1,4′-piperidine]-1′-)pentyl-2-)acetamide] was tested. Which pIC50 did it give?
The pIC50 was 6.00 to 7.00.

With [2H]c1c([2H])c([2H])c(N2CCN(CCCCc3cccc4c3CN(C3CCC(=O)NC3=O)C4=O)CC2)c([2H])c1[2H] (centres unmarked) [Example 208, 3-(1-oxo-4-(4-(4-(phenyl-d5)piperazine-1-)butyl)isoindoline-2-)piperidine-2,6-dione] as the compound, how does the pIC50 read?
The pIC50 was 6.00 to 7.00.

With [2H]c1c([2H])c([2H])c(N2CCN(CCCCCCc3cccc4c3CN(C3CCC(=O)NC3=O)C4=O)CC2)c([2H])c1[2H] (centres unmarked) [Example 209, 3-(1-oxo-4-(6-(4-(phenyl-d5)piperazine-1-)hexyl)isoindoline-2-)piperidine-2,6-dione] as the compound, how does the pIC50 read?
The pIC50 was greater than 7.00.

[2H]c1c([2H])c([2H])c(N2CCN(CCCCCc3cccc4c3CN(C3CCC(=O)NC3=O)C4=O)CC2)c([2H])c1[2H] (centres unmarked) [Example 210] was tested. Which pIC50 did it give?
The pIC50 was 6.00 to 7.00.

How did the pIC50 turn out when O=C1CCC(N2Cc3c(OCCCCOc4ccnc5ccccc45)cc(F)cc3C2=O)C(=O)N1 (centres unmarked) [Example 211, 3-(6-fluoro-1-oxy-4-(4-(quinoline-4-oxy)butoxy)-1-oxoisoindoline-2-)piperidine-2,6-dione] was run?
Its pIC50 is greater than 7.00.

With Cc1cc(OCCCCOc2cc(F)cc3c2CN(C2CCC(=O)NC2=O)C3=O)c2ccccc2n1 (centres unmarked) [Example 212, 3-(6-fluoro-4-(4-((2-methylquinoline-4-)oxy)butoxy)-1-oxoisoindoline-2-)piperidine-2,6-dione] as the compound, how does the pIC50 read?
The pIC50 was greater than 7.00.

How did the pIC50 turn out when Cc1cc(COCCCCOc2cccc3c2CN(C2CCC(=O)NC2=O)C3=O)c2ccccc2n1 (centres unmarked) [Example 213, 3-(4-(4-((2-methylquinoline-4-)methoxy)butoxy)-1-oxoisoindoline-2-)piperidine-2,6-dione] was run?
The pIC50 was 6.00 to 7.00.

With CCc1cc(COCCCCOc2cccc3c2CN(C2CCC(=O)NC2=O)C3=O)c2ccccc2n1 (centres unmarked) [Example 214, 3-(4-(4-((2-ethylquinoline-4-)methoxy)butoxy)-1-oxoisoindoline-2-)piperidine-2,6-dione] as the compound, how does the pIC50 read?
Its pIC50 is 6.00 to 7.00.

How did the pIC50 turn out when O=C1CCC(N2Cc3c(CCCCN4CCN(c5ccccc5Cl)CC4)cccc3C2=O)C(=O)N1 (centres unmarked) [Example 215, 3-(4-(4-(4-(2-chlorophenyl)piperazine-1-yl)butyl)-1-oxoisoindoline-2-yl) piperidine-2,6-dione] was run?
Its pIC50 is greater than 7.00.

With O=C1CCC(N2Cc3c(CCCCN4CCN(c5ccccc5[N+](=O)[O-])CC4)cccc3C2=O)C(=O)N1 (centres unmarked) [Example 216, 3-(4-(4-(4-(2-nitrophenyl)piperazine-1-yl)butyl)-1-oxoisoindoline-2-yl) piperidine-2,6-dione] as the compound, how does the pIC50 read?
The pIC50 was greater than 7.00.

How did the pIC50 turn out when Cc1ccccc1N1CCN(CCCCc2cccc3c2CN(C2CCC(=O)NC2=O)C3=O)CC1 (centres unmarked) [Example 217, 3-(1-oxo-4-(4-(4-(o-tolyl)piperazine-1-yl)butyl)isoindoline-2-yl)piperidine-2,6-dione] was run?
Its pIC50 is greater than 7.00.

How did the pIC50 turn out when O=C1CCC(N2Cc3c(CCCCN4CCN(c5ccccc5F)CC4)cccc3C2=O)C(=O)N1 (centres unmarked) [Example 218, 3-(4-(4-(4-(2-fluorophenyl)piperazine-1-yl)butyl)-1-oxoisoindoline-2-yl)piperidine-2,6-dione] was run?
The pIC50 was greater than 7.00.

With O=C1CCC(N2Cc3c(CCCCN4CCN(c5ccccc5C(F)(F)F)CC4)cccc3C2=O)C(=O)N1 (centres unmarked) [Example 219, 3-(1-oxo-4-(4-(4-(2-(trifluoromethyl)phenyl)piperazine-1-yl)butyl)isoindoline-2-yl)piperidine-2,6-dione] as the compound, how does the pIC50 read?
Its pIC50 is greater than 7.00.

O=C1CCC(N2Cc3c(CCCCN4CCN(c5cccc(C(F)(F)F)c5)CC4)cccc3C2=O)C(=O)N1 (centres unmarked) [Example 220, 3-(1-oxo-4-(4-(4-(3-(trifluoromethyl)phenyl)piperazine-1-yl)butyl)isoindoline-2-yl)piperidine-2,6-dione] was tested. Which pIC50 did it give?
The pIC50 was greater than 7.00.

How did the pIC50 turn out when O=C1CCC(N2Cc3c(CCCCN4CCN(c5ccc(Cl)cc5Cl)CC4)cccc3C2=O)C(=O)N1 (centres unmarked) [Example 222, 3-(4-(4-(4-(2,4-dichlorophenyl)piperazine-1-yl)butyl)-1-oxoisoindoline-2-yl)piperidine-2,6-dione] was run?
Its pIC50 is greater than 7.00.

How did the pIC50 turn out when O=C1CCC(N2Cc3c(CCCCN4CCN(c5cc(Cl)cc(Cl)c5)CC4)cccc3C2=O)C(=O)N1 (centres unmarked) [Example 223, 3-(4-(4-(4-(3,5-dichlorophenyl)piperazine-1-yl)butyl)-1-oxoisoindoline-2-yl) piperidine-2,6-dione] was run?
The pIC50 was greater than 7.00.

How did the pIC50 turn out when COc1ccccc1N1CCN(CCCCc2cccc3c2CN(C2CCC(=O)NC2=O)C3=O)CC1 (centres unmarked) [Example 224, 3-(4-(4-(4-(2-methoxyphenyl)piperazine-1-yl)butyl)-1-isoindoline-2-yl)piperidine-2,6-dione] was run?
The pIC50 was greater than 7.00.

O=C1CCC(N2Cc3c(CCCCCN4CCN(c5cccc6ccsc56)CC4)cccc3C2=O)C(=O)N1 (centres unmarked) [Example 225, 3-(4-(5-(4-(benzothiophene-7-yl)piperazin-1-yl)pentyl)-1-oxoisoindoline-2-yl)piperidine-2,6-dione] was tested. Which pIC50 did it give?
Its pIC50 is 4.70 to 6.00.

O=C1CCC(N2Cc3c(CCCCN4CCC(c5noc6cc(F)ccc56)CC4)cccc3C2=O)C(=O)N1 (centres unmarked) [Example 227, 3-(4-(4-(4-(6-fluorobenzisoxazole-3-yl)piperidin-1-yl)butyl)-1-oxoisoindoline-2-yl)piperidine-2,6-dione] was tested. Which pIC50 did it give?
Its pIC50 is 4.70 to 6.00.

With O=C1CCC(N2Cc3c(CCCCN4CCN(c5noc6ccccc56)CC4)cccc3C2=O)C(=O)N1 (centres unmarked) [Example 228, 3-(4-(4-(4-(benzisoxazole-3-yl)piperazine-1-yl)butyl)-1-oxoisoindoline-2-yl)piperidine-2,6-dione] as the compound, how does the pIC50 read?
The pIC50 was 4.70 to 6.00.

O=C1CCC(N2Cc3c(CCCCN4CCN(c5cc(Cl)ccc5Cl)CC4)cccc3C2=O)C(=O)N1 (centres unmarked) [Example 229, 3-(4-(4-(4-(2,5-dichlorophenyl)piperazine-1-yl)butyl)-1-oxoisoindoline-2-yl) piperidine-2,6-dione] was tested. Which pIC50 did it give?
The pIC50 was 6.00 to 7.00.

How did the pIC50 turn out when O=C1CCC(N2Cc3c(CCCCN4CCN(c5nsc6ccccc56)CC4)cccc3C2=O)C(=O)N1 (centres unmarked) [Example 230, 3-(4-(4-(4-(benzisothiazol-3-yl)piperazine-1-yl)butyl)-1-oxoisoindoline-2-yl) piperidine-2,6-dione] was run?
The pIC50 was 4.70 to 6.00.

How did the pIC50 turn out when O=C1CCC(N2Cc3c(CCCCCN4CCN(c5noc6ccccc56)CC4)cccc3C2=O)C(=O)N1 (centres unmarked) [Example 231, 3-(4-(5-(4-(benzisoxazole-3-yl)piperazin-1-yl)pentyl)-1-oxoisoindoline-2-yl) piperidine-2,6-dione] was run?
Its pIC50 is 4.70 to 6.00.

O=C1CCC(N2Cc3c(CCCCCN4CCN(c5nsc6ccccc56)CC4)cccc3C2=O)C(=O)N1 (centres unmarked) [Example 232, 3-(4-(5-(4-(benzisothiazol-3-yl)piperazin-1-yl)pentyl)-1-oxoisoindoline-2-yl) piperidine-2,6-dione] was tested. Which pIC50 did it give?
Its pIC50 is 4.70 to 6.00.

With O=C1CCC(N2Cc3c(CCCCCN4CCN(c5cc(Cl)ccc5Cl)CC4)cccc3C2=O)C(=O)N1 (centres unmarked) [Example 233, 3-(4-(5-(4-(2,5-dichlorophenyl)piperazine-1-yl)pentyl)-1-oxoisoindoline-2-yl) piperidine-2,6-dione] as the compound, how does the pIC50 read?
Its pIC50 is 6.00 to 7.00.

O=C1CCC(N2Cc3c(CCCCCN4CCN(c5ccc(Cl)c(Cl)c5)CC4)cccc3C2=O)C(=O)N1 (centres unmarked) [Example 234, 3-(4-(5-(4-(3,4-dichlorophenyl)piperazine-1-yl)pentyl)-1-oxoisoindoline-2-yl)piperidine-2,6-dione] was tested. Which pIC50 did it give?
The pIC50 was 6.00 to 7.00.

O=C1CCC(N2Cc3c(CCCCCN4CCN(c5ccc(Cl)cc5Cl)CC4)cccc3C2=O)C(=O)N1 (centres unmarked) [Example 236, 3-(4-(5-(4-(2,4-dichlorophenyl)piperazine-1-yl)pentyl)-1-oxoisoindoline-2-yl)piperidine-2,6-dione] was tested. Which pIC50 did it give?
Its pIC50 is 4.70 to 6.00.

With O=C1CCC(N2Cc3c(CCCCCN4CCN(c5cc(Cl)cc(Cl)c5)CC4)cccc3C2=O)C(=O)N1 (centres unmarked) [Example 237, 3-(4-(5-(4-(3,5-dichlorophenyl)piperazine-1-yl)pentyl)-1-oxoisoindoline-2-yl)piperidine-2,6-dione] as the compound, how does the pIC50 read?
Its pIC50 is 6.00 to 7.00.

O=C1CCC(N2Cc3c(OCCCN4CCN(c5cccc(Cl)c5Cl)CC4)cccc3C2=O)C(=O)N1 (centres unmarked) [Example 238, 3-(4-(3-(4-(2,3-dichlorophenyl)piperazine-1-yl)propoxy)-1-oxoisoindoline-2-yl)piperidine-2,6-dione] was tested. Which pIC50 did it give?
Its pIC50 is 6.00 to 7.00.

With O=C1CCC(N2Cc3c(OCCCCN4CCN(c5cccc6ccsc56)CC4)cccc3C2=O)C(=O)N1 (centres unmarked) [Example 239, 3-(4-(4-(4-(benzothiophene-7-yl)piperazine-1-yl)butoxy)-1-oxoisoindoline-2-yl)piperidine-2,6-dione] as the compound, how does the pIC50 read?
Its pIC50 is 4.70 to 6.00.

How did the pIC50 turn out when O=C1CCC(N2Cc3c(OCCCCN4CCN(c5cccc(Cl)c5Cl)CC4)cccc3C2=O)C(=O)N1 (centres unmarked) [Example 240, 3-(4-(4-(4-(2,3-dichlorophenyl)piperazine-1-yl)butoxy)-1-oxoisoindoline-2-yl)piperidine-2,6-dione] was run?
Its pIC50 is 4.70 to 6.00.
